Experimental data as given in patent publication US20240034765A1, “SCG2 NEUROPEPTIDES AND USES THEREOF” (PRESIDENT AND FELLOWS OF HARVARD COLLEGE, priority 2020, published 2024).

Tests used:
[1] = tested on: IPSCs in CA1 pyramidal neurons; test: Check that IPSCs in dual whole-cell recordings are monosynaptic (onset latency); type: cell-based, mice; conditions: NBQX and (R)-CPP added together in the bath
Experimental: For electrical stimulation experiments, electrical current was delivered via theta glass stimulation electrode placed in the center of stratum pyramidale or stratum radiatum within 150-200 μm of the recorded neuron pair. The stimulus strength was the minimum required to generate small but reliable currents in both neurons. IPSCs were pharmacologically isolated via the addition of 10 μM NBQX (TOCRIS 1044) and 10 μM (R)-CPP (TOCRIS 0247) to the ACSF perfusion.
For the paired interneuron-to-CA1 pyramidal neuron recordings, the monosynaptic nature of the IPSCs was confirmed based on the expected onset latency of 1-3 ms in slice.

PV-IPSCs in CA1 PCs [2] = test: shRNA-mediated gene knockdown, dual whole-cell recordings of light-evoked PV-IPSCs; type: in vivo; conditions: Dlx5/6Flp; PVCre mice treated with KA for 24 h
Source text: To identify molecular effector(s) of bidirectional perisomatic inhibitory plasticity downstream of Fos activation, short hairpin RNA (shRNA)-mediated gene knockdown was used to determine if any of the six candidate genes mediate the activity-dependent strengthening of PV-mediated inhibition. After verifying the efficiency of knockdown in neurons (see e.g., FIG. 13B) and the absence of adverse effects on overall neuronal viability, individual shRNAs were cloned into a Flp-OFF AAV, allowing payload inactivation by Flp recombinase and the exclusion of shRNA expression in GABAergic INs when using Dlx5/6^Flp mice (see e.g., FIG. 4A, FIG. 4B, FIG. 13C, FIG. 8A).
Following sparse transduction of neurons, PV-IPSCs was simultaneously measured in neighboring pairs of shRNA-positive (mCherry^+) and shRNA-negative (mCherry^−) PCs by photostimulating PV-specific ChR2-expressing boutons in Dlx5/6^Flp; PV^Cre mice that had been treated with KA for 24 h (see e.g., FIG. 4B). […] Similar results were observed following more the physiological condition of NE exposure (see e.g., FIG. 4E, FIG. 13F), indicating a prominent role for CA1 PC-derived Scg2 in the long-term regulation of PV-mediated inhibition.
Viral vectors and titers. All AAVs used were prepared in a Hospital Viral Core and were of serotype AAV2/1. For sparse transductions, viruses were injected at 1×10^8 genome copies per hippocampal hemisphere. For dense transductions, viruses were injected at 2×10^9 genome copies (gc) per hippocampal hemisphere. The viral vectors and original titers were as follows: pAAV-EF1a-DIO-hChR2(H134R)-EYFP (ADDGENE 20298, 1.75×10^13 gc/mL), pAAV-EF1a-fDIO-hChR2(H134R)-EYFP (ADDGENE 55639, 1.39×10^13 gc/mL), pAAV-hSyn-Con/Fon-hChR2-EYFP (ADDGENE 55645, […]), pAAV-pRAM-tTA::TRE-NLS-mKate2-WPREpA (ADDGENE 84474, 2.25×10^13 gc/mL), pAAV-CAG-Cre-GFP (OHIO STATE UNIVERSITY, 1.75×10^13 gc/mL), pAAV-CAG-Cre-mCherry (described herein, 9.10×10^12 gc/mL), pAAV-CAG-Cre-mTagBFP2 (described herein, 2.97×10^12 gc/mL), pAAV-CAG-deltaCre-GFP (described herein, 2.79×10^12 gc/mL), pAAV-FlpOFF-u6-shRNA-CAG-mCherry (described herein): Scrambled control shRNA (SEQ ID NO: 13, ACTTACGCTGAGTACTTCG) (5.08×10^13 gc/mL), Inhba (SEQ ID NO: 14, […]) (4.62×10^13 gc/mL), Bdnf (SEQ ID NO: 15, […]) (6.97×10^13 gc/mL), Pcsk1 (SEQ ID NO: 16, […]) (6.02×10^12 gc/mL), Nptx2 (SEQ ID NO: 17, […]) (1.30×10^12 gc/mL), Scg2#1 (SEQ ID NO: 18, […]) (8.11×10^11 gc/mL), Scg2#2 (SEQ ID NO: 19, […]) (2.75×10^13 gc/mL), Rgs2 (SEQ ID NO: 20, […]) (6.14×10^12 gc/mL), pAAV-CaMKIIa-mCherry (described herein, 3.80×1012 gc/mL), pAAV-CaMKIIa-hM3DGq-T2A-mCherry (described herein, 1.20×10^12 gc/mL), pAAV-hSyn-FlpOFF-Kir2.1-T2A-mCherry (described herein, 2.26×10^12 gc/mL), pAAV-hSyn-FlpOFF-Kir.2.1(Mutant)-T2A-mCherry (described herein, 1.28×10^12 gc/mL; see e.g., Xue et al. (2014), supra), pAAV-u6(Frt)-shRNA#31-CAG-Scg2-rescue (shRNA-resistant)-1×HA-T2A-mCherry-Frt-SV40 (described herein, 1.88×10^12 gc/mL), pAAV-CAG-DIO-Scg2(WT)-3×HA-bGH polyA (described herein, 8.22×10^13 gc/mL), pAAV-CAG-DIO-Scg2(9AA Mutant)-3×HA-bGH polyA (described herein, 6.13×10^13 gc/mL), pAAV-CAG-Frt-Scg2(WT)-1×HA-T2A-mCherry-Frt-bGH polyA (described herein, 1.08×10^13 gc/mL), and pAAV-CAG-Scg2(9AA Mutant)-1×HA-T2A-mCherry-Frt-bGH polyA (described herein, 3.71×10^12 gc/mL).
Ex vivo electrophysiology.

CCK-IPSCs in CA1 PCs = test: Scg2 rescue and overexpression, dual whole-cell recordings of CCK-IPSCs; type: in vivo, mice
PV-IPSCs in CA1 PCs [3] = test: Scg2 rescue and overexpression, dual whole-cell recordings of PV-IPSCs; type: in vivo, mice
Source text: These findings were further corroborated through a series of rescue and overexpression experiments. […] In addition, amplitudes of light-evoked PV-IPSCs or CCK-IPSC were compared in Scg2-overexpressing (Scg2-OE) and neighboring control (Scg2-WT) neurons; gain-of-function of Scg2 was sufficient to strengthen PV-mediated inhibition and weaken CCK-mediated inhibition, respectively, in the absence of neural activity (see e.g., FIG. 5J, FIG. 15E, FIG. 15F).
Cleavage of the Scg2 precursor gives rise to multiple neuropeptides with distinct functions (see e.g., FIG. 4F). Given that Scg2 cleavage is directed by a series of internal dibasic residues, a cleavage-resistant form of Scg2 was generated in which the nine dibasic sequences were mutated to alanine (9AA-Mut).
Viral vectors and titers. All AAVs used were prepared in a Hospital Viral Core and were of serotype AAV2/1. For sparse transductions, viruses were injected at 1×10^8 genome copies per hippocampal hemisphere. For dense transductions, viruses were injected at 2×10^9 genome copies (gc) per hippocampal hemisphere. […]

[4] = exogenous expression in shRNA-mediated knockdown or Scg2fl/fl knockout conditions
[5] = overexpression in the absence of neural activity

For `O=C(O)[C@H]1CN(CCCP(=O)(O)O)CCN1` [(R)-CPP, 3-((R)-2-Carboxypiperazin-4-yl)-propyl-1-phosphonic acid], the “onset latency of the IPSCs” value [1] was “did not alter”.

With `NS(=O)(=O)c1cccc2c1c([N+](=O)[O-])cc1nc(O)c(O)nc12` [NBQX, 2,3-dihydroxy-6-nitro-7-sulphamoyl-benzo(F)quinoxaline] the “onset latency of the IPSCs” value [1] was “did not alter”.

In the case of “shRNA Bdnf: shRNA in pAAV-FlpOFF-u6-shRNA-CAG-mCherry, SEQ ID NO: 15, GAATTGGCTGGCGATTCATA”, the “amplitudes of PV-IPSC in shRNA-positive versus neighboring shRNA-negative PCs” value (PV-IPSCs in CA1 PCs [2]) is reported as “slight decrease”.

“shRNA Inhba: shRNA in pAAV-FlpOFF-u6-shRNA-CAG-mCherry, SEQ ID NO: 14, CCTTCCACTCAACAGTCATT” was tested, and the “amplitudes of PV-IPSC in shRNA-positive versus neighboring shRNA-negative PCs” value (PV-IPSCs in CA1 PCs [2]) was “no effects”.

In the case of “shRNA Nptx2: shRNA in pAAV-FlpOFF-u6-shRNA-CAG-mCherry, SEQ ID NO: 17, GAAGACATTGCCTGAGCTGT”, the “amplitudes of PV-IPSC in shRNA-positive versus neighboring shRNA-negative PCs” value (PV-IPSCs in CA1 PCs [2]) is reported as “no effects”.

For “shRNA Pcsk1: shRNA in pAAV-FlpOFF-u6-shRNA-CAG-mCherry, SEQ ID NO: 16, GATAATGATCATGATCCATT”, the “amplitudes of PV-IPSC in shRNA-positive versus neighboring shRNA-negative PCs” value (PV-IPSCs in CA1 PCs [2]) was “no effects”.

“shRNA Rgs2: shRNA in pAAV-FlpOFF-u6-shRNA-CAG-mCherry, SEQ ID NO: 20, GCTCCCAAAGAGATAAACAT” was tested, and the “amplitudes of PV-IPSC in shRNA-positive versus neighboring shRNA-negative PCs” value (PV-IPSCs in CA1 PCs [2]) was “no effects”.

B1: Scg2: wildtype full-length Scg2 (secretogranin II) precursor protein exogenously expressed from AAV in CA1 pyramidal cells (protein, UniProt Q03517 1-617, looked up)
chain: MAGAKAYRLGAVLLLIHLIFLISGAEAASFQRNQLLQKEPDLRLENVQKFPSPEMIRALEYIEKLRQQAHREESSPDYNPYQGVSVPLQLKENGEESHLAESSRDALSEDEWMRIILEALRQAENEPPSAPKENKPYALNLEKNFPVDTPDDYETQQWPERKLKHMRFPLMYEENSRENPFKRTNEIVEEQYTPQSLATLESVFQELGKLTGPSNQKRERVDEEQKLYTDDEDDVYKTNNIAYEDVVGGEDWSPIEEKIETQTQEEVRDSKENTEKNEQINEEMKRSGQLGLPDEENRRESKDQLSEDASKVITYLRRLVNAVGSGRSQSGPNGDRAARLLQKPLDSQSIYQLIEISRNLQIPPEDLIEMLKAGEKPNGLVEPEQDLELAVDLDDIPEADLDRPDMFQSKMLSKGGYPKAPGRGMVEALPDGLSVEDILNVLGMENVVNQKSPYFPNQYSQDKALMRLPYGPGKSRANQIPKVAWIPDVESRQAPYENLNDQELGEYLARMLVKYPELLNTNQLKRVPSPVSSEDDLQEEEQLEQAIKEHLGPGSSQEMERLAKVSKRIPVGSLKNEDTPNRQYLDEDMLLKVLEYLNQEQAEQGREHLAKRAMENM
modifications: full-length
notes: wildtype full-length Scg2 (secretogranin II) precursor protein exogenously expressed from AAV in CA1 pyramidal cells
With B1 the “CCK-mediated inhibition, rescue of loss of Scg2” value (CCK-IPSCs in CA1 PCs; [4]) was “restored to control levels”, the “CCK-mediated inhibition, overexpressing versus neighboring control neurons” value (CCK-IPSCs in CA1 PCs; [5]) was “weaken” and the “PV-mediated inhibition, rescue of loss of Scg2” value (PV-IPSCs in CA1 PCs [3]; [4]) was “restored to control levels”. The “PV-mediated inhibition, overexpressing versus neighboring control neurons” value (PV-IPSCs in CA1 PCs [3]; [5]) was “strengthen”.
